Source: US20260364073A1, “MAVACAMTEN AND DERIVATIVES THEREOF FOR USE IN TREATING ATRIAL DYSFUNCTION” (MyoKardia, Inc., priority 2022, published 2026)

How the values were obtained:
α-MHC / β-MHC in the LA = assay: LA myosin isoform content (α-MHC to β-MHC conversion) in HCM pigs; format: in vivo, Yucatan mini-pigs; settings: HCM pigs (FIG. 3), in comparison to untreated HCM pig controls
Source text: (§1) FIG. 1 is a schematic diagram showing the design for an experiment on the chronic effects of Compound A on HCM and on left atrial and left ventricular geometry and function in a mini-pig model of inherited HCM (“HCM pigs”). Compound A dose is increased over the first 12 weeks of the study to account for weight gain. CMPD A: Compound A. CTRL: control. cMR: cardiac MRI. PV: LV pressure and volume studies (invasive hemodynamics). RNA: LV gene expression studies. HIST: histology. BIO: LV/LA fiber biomechanical studies.
FIG. 3 is a set of graphs showing the effects of Compound A on left atrial (LA) geometry and function in HCM pigs.
(§2) Young (~1 month) cloned Yucatan mini-pigs with a heterozygous MYH7 R403Q mutation (“HCM pigs”) were treated and evaluated as shown in FIG. 1. The pigs were randomly assigned to one of two arms: untreated controls (CTRL, n=29) or daily Compound A (n=22; PO); untreated wild-type pigs (WT) served as […]. The pigs treated with Compound A were divided into two cohorts: A and B. Treated animals received progressively increasing Compound A doses (5, 7.5, 10, and 15 mg/day PO) to account for weight gain. After 14 weeks of treatment, pigs underwent in vivo cardiac MRI (cMR) imaging, including T1 mapping and extracellular volume (ECV) assessments. […]

[1] = biological target: T1, bovine cardiac synthetic myosin filaments (Bos taurus, UniProt Q9BE39); assay: DRX and SRX ATPase rates in bovine cardiac synthetic myosin filaments; format: biochemical; settings: role: inhibitor, range of concentrations (FIG. 5), Compound A compared with mavacamten
T1 construct: single-turnover ATPase (DRX/SRX)

[2] = test system: HCM pigs (heterozygous MYH7 R403Q mutation); assay: Chronic Compound A treatment in mini-pig model of inherited HCM: mortality, cTnT, cardiac MRI; format: in vivo, Yucatan mini-pigs; settings: chronic treatment PO
Source text: as §1
This Example describes an in vivo study that evaluates the chronic effects of Compound A, in a genetic large-animal model of HCM.
as §2

T1 sequence (Q9BE39 whole entry): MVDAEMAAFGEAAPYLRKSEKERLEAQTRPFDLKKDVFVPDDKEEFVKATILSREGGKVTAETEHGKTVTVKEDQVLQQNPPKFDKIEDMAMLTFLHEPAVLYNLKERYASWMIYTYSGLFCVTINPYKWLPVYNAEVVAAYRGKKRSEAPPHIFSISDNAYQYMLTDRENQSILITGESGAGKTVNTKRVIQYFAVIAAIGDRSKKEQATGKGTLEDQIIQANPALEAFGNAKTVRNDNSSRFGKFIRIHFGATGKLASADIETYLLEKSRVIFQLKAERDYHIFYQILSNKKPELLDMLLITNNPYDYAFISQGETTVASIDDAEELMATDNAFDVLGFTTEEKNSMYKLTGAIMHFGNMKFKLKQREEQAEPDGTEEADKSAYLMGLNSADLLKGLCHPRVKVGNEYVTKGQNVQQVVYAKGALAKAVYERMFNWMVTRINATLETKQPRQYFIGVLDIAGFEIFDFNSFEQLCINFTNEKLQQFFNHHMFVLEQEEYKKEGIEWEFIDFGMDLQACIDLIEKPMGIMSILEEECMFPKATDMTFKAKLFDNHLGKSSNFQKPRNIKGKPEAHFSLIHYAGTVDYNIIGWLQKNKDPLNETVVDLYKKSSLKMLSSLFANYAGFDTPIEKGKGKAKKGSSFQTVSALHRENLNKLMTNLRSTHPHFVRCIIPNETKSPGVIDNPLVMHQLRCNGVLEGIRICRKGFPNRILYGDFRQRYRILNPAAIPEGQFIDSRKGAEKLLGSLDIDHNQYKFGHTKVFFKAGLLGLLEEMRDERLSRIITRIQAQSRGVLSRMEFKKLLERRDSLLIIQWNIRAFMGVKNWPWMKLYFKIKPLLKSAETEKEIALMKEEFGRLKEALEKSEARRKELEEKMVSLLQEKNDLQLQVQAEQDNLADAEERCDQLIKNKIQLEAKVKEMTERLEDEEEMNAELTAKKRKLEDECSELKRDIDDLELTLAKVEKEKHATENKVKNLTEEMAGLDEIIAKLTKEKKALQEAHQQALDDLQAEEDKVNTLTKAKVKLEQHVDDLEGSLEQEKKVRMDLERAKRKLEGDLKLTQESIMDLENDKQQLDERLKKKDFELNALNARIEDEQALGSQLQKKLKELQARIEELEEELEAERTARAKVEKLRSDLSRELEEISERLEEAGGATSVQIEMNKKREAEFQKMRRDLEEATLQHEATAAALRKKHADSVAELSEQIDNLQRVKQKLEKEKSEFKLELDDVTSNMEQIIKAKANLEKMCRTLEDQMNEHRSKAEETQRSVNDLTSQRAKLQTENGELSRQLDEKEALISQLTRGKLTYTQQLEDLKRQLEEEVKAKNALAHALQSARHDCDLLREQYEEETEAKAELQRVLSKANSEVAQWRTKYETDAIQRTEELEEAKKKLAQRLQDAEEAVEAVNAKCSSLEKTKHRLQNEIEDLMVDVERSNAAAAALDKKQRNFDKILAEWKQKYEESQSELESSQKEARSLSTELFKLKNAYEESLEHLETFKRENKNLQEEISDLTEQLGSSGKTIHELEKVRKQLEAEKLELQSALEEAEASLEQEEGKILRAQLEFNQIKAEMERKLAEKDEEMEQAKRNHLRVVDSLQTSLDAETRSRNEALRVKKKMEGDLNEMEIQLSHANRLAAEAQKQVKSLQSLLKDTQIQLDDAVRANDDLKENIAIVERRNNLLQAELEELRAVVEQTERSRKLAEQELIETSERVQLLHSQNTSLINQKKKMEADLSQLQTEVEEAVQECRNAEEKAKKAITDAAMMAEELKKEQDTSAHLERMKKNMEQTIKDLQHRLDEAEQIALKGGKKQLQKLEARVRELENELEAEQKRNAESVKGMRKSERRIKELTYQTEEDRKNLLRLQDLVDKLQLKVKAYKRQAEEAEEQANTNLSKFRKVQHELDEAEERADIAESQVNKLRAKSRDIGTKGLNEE
T1 sequence (P85100 whole entry partner): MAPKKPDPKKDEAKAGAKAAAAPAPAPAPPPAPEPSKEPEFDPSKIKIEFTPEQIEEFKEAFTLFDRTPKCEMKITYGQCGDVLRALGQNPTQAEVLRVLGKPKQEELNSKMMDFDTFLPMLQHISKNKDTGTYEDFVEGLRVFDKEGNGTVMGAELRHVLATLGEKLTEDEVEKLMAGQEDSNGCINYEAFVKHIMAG
T1 sequence (Q3SZE5 whole entry partner): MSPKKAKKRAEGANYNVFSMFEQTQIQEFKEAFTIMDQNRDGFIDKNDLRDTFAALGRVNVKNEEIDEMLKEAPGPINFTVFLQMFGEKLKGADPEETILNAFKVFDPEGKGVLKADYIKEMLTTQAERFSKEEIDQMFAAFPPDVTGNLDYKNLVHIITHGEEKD

SMILES: CC(C)n1c(=O)cc(N[C@@H](C)c2cccc(F)c2)[nH]c1=O [Compound A]
- conversion of α-MHC to β-MHC in the LA (α-MHC / β-MHC in the LA): prevented the conversion of α-MHC to β-MHC in the LA
- disordered relaxed state (DRX) ATPase rate (as a fraction of control) [1]: similar
- super-relaxed state (SRX) ATPase rate (as a fraction of control) [1]: similar
- left atrial remodeling [2]: prevented left atrial remodeling

SMILES: CC(C)n1c(=O)cc(N[C@@H](C)c2ccccc2)[nH]c1=O [mavacamten]
- disordered relaxed state (DRX) ATPase rate (as a fraction of control) [1]: similar
- super-relaxed state (SRX) ATPase rate (as a fraction of control) [1]: similar
